How the values were obtained:
[1] = Sensory experiment, trained panel, sweet base (water solution containing sucrose at 4%); format: in vivo, human; details: 10 ppm compound in 4% sucrose base; twenty trained panelists
Method: (§1) Methodology: compounds 101 and 108 were evaluated as sweet modifiers in a sweet (water solution containing sucrose at 4%) or a sweet-sour base (mixture of inverted sugar and citric acid at 7% and 0.15%) at 10 ppm. Twenty trained panelists were asked to compare the intensity difference between reference and compound 101 or compound 108. The taste properties (such as sweet, sour) were evaluated on a scale of −5 to 5 (−5 denoted strong masking effect and 5 denoted strong enhancing effect, 0 being the intensity of reference.

[2] = Sensory experiment, trained panel, sweet-sour base (inverted sugar 7% and citric acid 0.15%); format: in vivo, human; details: 10 ppm compound in sweet-sour base of inverted sugar 7% and citric acid 0.15%
Method: as §1

[3] = pH value of the sweet-sour base with compound; format: physicochemical; details: 10 ppm compound in sweet-sour base of inverted sugar and citric acid

## COc1cc(O)c(C(=O)CCc2ccc(O)cc2)c(O)c1C [compound 101]
[1]
  sweet intensity versus reference (scale -5 to 5): can increase sweet intensity
[2]
  sour intensity versus reference (scale -5 to 5): significantly increase
  sweet intensity versus reference (scale -5 to 5): significantly increase
[3]
  pH value of the base: without changing the pH value

## O=C1CC(c2ccc(O)cc2)c2c(cc(O)c(C(=O)CCc3ccc(O)cc3)c2O)O1 (centres unmarked) [compound 108]
[1]
  sweet intensity versus reference (scale -5 to 5): can increase sweet intensity
